Laboratory results from patent US20050191359A1, “Water soluble nanoparticles and method for their production” (SoluBest Ltd., priority 2001, published 2005).

Key:
[1] = Solubility of erythromycin alone and as nano-dispersion with modified starch; assay type: physicochemical
Micrococcus luteus = experiment: In vitro microbiological activity, agar petri-dish filter-disc test (zones of bacteriostatic activity versus time); assay type: cell-based; details: identical concentrations of drug; observed until 216 hours post-application
Description: The microbiological activity of various concentrations of water-soluble complexes of clarithromycin prepared in Example 3 was tested on the bacterium Micrococcus luteus, which is sensitive to macrolide antibiotics, and compared to uncomplexed commercial clarithromycin using well-known agar-filled petri-dish tests. Small filter paper cut discs were impregnated with two different solution concentrations (100 or 1,000 μ/ml) of the tested antibiotics. Diameters of the zones pf bacteriostatic activity were measured versus time. […] It was also observed that the difference in microbiological activity for complexed clarithromycin having concentration differences of an order of magnitude between them is vastly greater than the corresponding differences noted with uncomplexed clarithromycin.

[2] = rats, same oral dose of 150 mg/kg; cited from earlier work

| Structure (SMILES) | solubility of the original drug in water [1] [%] | time until which antibacterial activity continued (Micrococcus luteus) | AUC0-24 hours, published data [2] [ng·h/mL] |
| --- | --- | --- | --- |
| CC[C@H]1OC(=O)[C@H](C)[C@@H](O[C@H]2C[C@@](C)(OC)[C@@H](O)[C@H](C)O2)[C@H](C)[C@@H](O[C@@H]2O[C@H](C)C[C@H](N(C)C)[C@H]2O)[C@](C)(O)C[C@@H](C)C(=O)[C@H](C)[C@@H](O)[C@]1(C)O [Erythromycin, erythromycin] | 0.2 | – | – |
| CC[C@H]1OC(=O)[C@H](C)[C@@H](O[C@H]2C[C@@](C)(OC)[C@@H](O)[C@H](C)O2)[C@H](C)[C@@H](O[C@@H]2O[C@H](C)C[C@H](N(C)C)[C@H]2O)[C@](C)(OC)C[C@@H](C)C(=O)[C@H](C)[C@@H](O)[C@]1(C)O [commercial clarithromycin, clarithromycin] | – | approximately 48 hours | 32540 |
